T/C data for eight compounds are collected here from PubChem BioAssay AID256 (DTP/NCI, 2004).

The assay relates to CD2F1 mice, L1210 leukemia ip, survival T/C. Put plainly: NCI In Vivo Anticancer Drug Screen. Data for tumor model L1210 Leukemia (intraperitoneal) in CD2F1 (CDF1) mice. To be noted: higher = longer survival. An outline of the steps:
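Antitumor effect is scored in animals hosting a serially transplanted tumor. Values compare compound-dosed animals against vehicle-only controls as a simple quotient.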

[1] abbreviates: endpoint: mean survival time, dose: 100.0 mg/kg/injection, schedule: Q01DX001 (ip), vehicle: saline with Tween-80.
[2] abbreviates: endpoint: mean survival time, dose: 200.0 mg/kg/injection, schedule: Q01DX001 (ip), vehicle: saline with Tween-80.
[3] abbreviates: endpoint: mean survival time, dose: 400.0 mg/kg/injection, schedule: Q01DX001 (ip), vehicle: saline with Tween-80.
Setting [4] is: endpoint: mean survival time, dose: 25.0 mg/kg/injection, schedule: Q01DX009 (ip), vehicle: Klucel (hydroxypropylcellulose) (HPC).
The mark [5] stands for this setting: endpoint: mean survival time, dose: 50.0 mg/kg/injection, schedule: Q01DX009 (ip), vehicle: Klucel (hydroxypropylcellulose) (HPC).

Values joined by “and” are separate entries in the source; they are usually repeats but may differ in a detail not shown here. Identical values can stand only once. Toxic doses and inconclusive results are not listed.

As to `Cc1ccc(S(=O)(=O)N/N=C/C(=O)O)cc1`, the T/C (endpoint: mean survival time, dose: 25.0 mg/kg/injection, schedule: Q01DX009 (ip), vehicle: other) is 117 % of control and 108 % of control; the T/C (endpoint: mean survival time, dose: 100.0 mg/kg/injection, schedule: Q01DX009 (ip), vehicle: other) is 123 % of control; the T/C (endpoint: mean survival time, dose: 100.0 mg/kg/injection, schedule: Q04DX003 (ip), vehicle: Klucel (hydroxypropylcellulose) (HPC)) was 150 % of control; the T/C (endpoint: mean survival time, dose: 100.0 mg/kg/injection, schedule: Q04DX003 (ip), vehicle: saline with Tween-80) is 123 % of control; the T/C (endpoint: mean survival time, dose: 200.0 mg/kg/injection, schedule: Q01DX009 (ip), vehicle: other) is 96 % of control and 102 % of control; the T/C (endpoint: mean survival time, dose: 400.0 mg/kg/injection, schedule: Q04DX003 (ip), vehicle: Klucel (hydroxypropylcellulose) (HPC)) was 186 % of control. Moreover, the T/C reads like this: (endpoint: mean survival time, dose: 600.0 mg/kg/injection, schedule: Q04DX003 (ip), vehicle: Klucel (hydroxypropylcellulose) (HPC)) 114 % of control; (endpoint: mean survival time, dose: 600.0 mg/kg/injection, schedule: Q04DX003 (ip), vehicle: saline with Tween-80) 153 % of control; (endpoint: median survival time, dose: 1.0 mg/kg/injection, schedule: Q03HX024 (ip), vehicle: saline) 111 % of control; (endpoint: median survival time, dose: 2.0 mg/kg/injection, schedule: Q03HX016 (ip), vehicle: saline) 124 % of control; (endpoint: median survival time, dose: 2.0 mg/kg/injection, schedule: Q03HX024 (ip), vehicle: saline) 112 % of control; (endpoint: median survival time, dose: 4.0 mg/kg/injection, schedule: Q03HX008 (ip), vehicle: saline) 124 % of control. In addition, the T/C is, setting by setting: (endpoint: median survival time, dose: 4.0 mg/kg/injection, schedule: Q03HX024 (ip), vehicle: saline) 121 % of control; (endpoint: median survival time, dose: 8.0 mg/kg/injection, schedule: Q01DX009 (sc), vehicle: saline) 102 % of control; (endpoint: median survival time, dose: 16.0 mg/kg/injection, schedule: Q01DX009 (oral), vehicle: saline) 101 % of control; (endpoint: median survival time, dose: 16.0 mg/kg/injection, schedule: Q01DX009 (sc), vehicle: saline) 104 % of control; (endpoint: median survival time, dose: 32.0 mg/kg/injection, schedule: Q01DX001 (sc), vehicle: saline) 104 % of control; (endpoint: median survival time, dose: 32.0 mg/kg/injection, schedule: Q01DX009 (ip), vehicle: saline) 166 % of control. The T/C by setting is: (endpoint: median survival time, dose: 32.0 mg/kg/injection, schedule: Q01DX009 (oral), vehicle: saline) 98 % of control; (endpoint: median survival time, dose: 32.0 mg/kg/injection, schedule: Q01DX009 (sc), vehicle: saline) 116 % of control; (endpoint: median survival time, dose: 32.0 mg/kg/injection, schedule: Q03HX016 (ip), vehicle: saline) 123 % of control; (endpoint: median survival time, dose: 32.0 mg/kg/injection, schedule: Q03HX024 (ip), vehicle: saline) 92 % of control; (endpoint: median survival time, dose: 64.0 mg/kg/injection, schedule: Q01DX001 (sc), vehicle: saline) 105 % of control; (endpoint: median survival time, dose: 64.0 mg/kg/injection, schedule: Q01DX009 (ip), vehicle: saline) 157 % of control. For the same compound, the T/C (endpoint: median survival time, dose: 64.0 mg/kg/injection, schedule: Q01DX009 (oral), vehicle: saline) is 102 % of control; the T/C (endpoint: median survival time, dose: 64.0 mg/kg/injection, schedule: Q01DX009 (sc), vehicle: saline) was 116 % of control; the T/C (endpoint: median survival time, dose: 64.0 mg/kg/injection, schedule: Q04DX003 (ip), vehicle: saline) is 164 % of control; the T/C (endpoint: median survival time, dose: 128.0 mg/kg/injection, schedule: Q01DX001 (oral), vehicle: saline) is 102 % of control; the T/C (endpoint: median survival time, dose: 128.0 mg/kg/injection, schedule: Q01DX001 (sc), vehicle: saline) is 104 % of control; the T/C (endpoint: median survival time, dose: 128.0 mg/kg/injection, schedule: Q01DX009 (oral), vehicle: saline) is 102 % of control. Also, the T/C was 116 % of control (endpoint: median survival time, dose: 128.0 mg/kg/injection, schedule: Q01DX009 (sc), vehicle: saline); 168 % of control (endpoint: median survival time, dose: 128.0 mg/kg/injection, schedule: Q04DX003 (ip), vehicle: saline); 155 % of control (endpoint: median survival time, dose: 128.0 mg/kg/injection, schedule: Q08DX002 (ip), vehicle: saline); 98 % of control (endpoint: median survival time, dose: 256.0 mg/kg/injection, schedule: Q01DX001 (oral), vehicle: saline); 107 % of control (endpoint: median survival time, dose: 256.0 mg/kg/injection, schedule: Q01DX001 (sc), vehicle: saline); 105 % of control (endpoint: median survival time, dose: 256.0 mg/kg/injection, schedule: Q01DX009 (oral), vehicle: saline). In addition, the T/C runs as follows: (endpoint: median survival time, dose: 512.0 mg/kg/injection, schedule: Q01DX001 (oral), vehicle: saline) 110 % of control; (endpoint: median survival time, dose: 512.0 mg/kg/injection, schedule: Q01DX001 (sc), vehicle: saline) 112 % of control; (endpoint: median survival time, dose: 1024.0 mg/kg/injection, schedule: Q01DX001 (oral), vehicle: saline) 123 % of control.

Consider `CCCCCCCCCCCCOC(=O)c1ccc([N+](=O)[O-])cc1`, for which the T/C reads like this: under setting [1], 94 % of control; under setting [2], 91 % of control; under setting [3], 91 % of control.

As for `CCOC(=O)CCCSc1n[nH]c(=O)[nH]c1=O`, the T/C reads like this: (endpoint: mean survival time, dose: 12.5 mg/kg/injection, schedule: Q01DX005 (ip), vehicle: distilled water + Tween-80) 100 % of control; (endpoint: mean survival time, dose: 25.0 mg/kg/injection, schedule: Q01DX005 (ip), vehicle: distilled water + Tween-80) 102 % of control; (endpoint: mean survival time, dose: 50.0 mg/kg/injection, schedule: Q01DX005 (ip), vehicle: distilled water + Tween-80) 96 % of control; (endpoint: mean survival time, dose: 100.0 mg/kg/injection, schedule: Q01DX005 (ip), vehicle: distilled water + Tween-80) 91 % of control; (endpoint: mean survival time, dose: 200.0 mg/kg/injection, schedule: Q01DX005 (ip), vehicle: distilled water + Tween-80) 92 % of control.

Consider `CC(C)(CCC#N)C(O)c1ccccc1` (configuration not stated), for which the T/C (endpoint: mean survival time, dose: 100.0 mg/kg/injection, schedule: Q04DX002 (ip), vehicle: other) was 98 % of control; the T/C (endpoint: mean survival time, dose: 200.0 mg/kg/injection, schedule: Q04DX002 (ip), vehicle: other) is 102 % of control; the T/C (endpoint: mean survival time, dose: 400.0 mg/kg/injection, schedule: Q04DX002 (ip), vehicle: other) was 105 % of control.

For the compound `CCCCCCCCCc1nc(N)nc(NCCCC)n1`, the T/C runs as follows: under setting [4], 101 % of control; under setting [5], 112 % of control; (endpoint: mean survival time, dose: 100.0 mg/kg/injection, schedule: Q01DX009 (ip), vehicle: Klucel (hydroxypropylcellulose) (HPC)) 108 % of control.

Consider `COC1OC2COc3ccccc3OC2C(NC#N)C1OC(C)=O` (configuration not stated), for which the T/C reads like this: under setting [1], 101 % of control; under setting [2], 100 % of control; under setting [3], 100 % of control.

On to `Oc1ccc(/C=N/NC(=S)NN2CCOCC2)nc1`, for which the T/C was 103 % of control (endpoint: mean survival time, dose: 3.12 mg/kg/injection, schedule: Q01DX009 (ip), vehicle: Klucel (hydroxypropylcellulose) (HPC)); 104 % of control (endpoint: mean survival time, dose: 6.25 mg/kg/injection, schedule: Q01DX009 (ip), vehicle: Klucel (hydroxypropylcellulose) (HPC)); 101 % of control (endpoint: mean survival time, dose: 12.5 mg/kg/injection, schedule: Q01DX009 (ip), vehicle: Klucel (hydroxypropylcellulose) (HPC)); 121 % of control under setting [4]; 101 % of control (endpoint: mean survival time, dose: 25.0 mg/kg/injection, schedule: Q04DX002 (ip), vehicle: saline with Tween-80); 95 % of control under setting [5]. Moreover, where the note is “endpoint: mean survival time, dose: 100.0 mg/kg/injection, schedule: Q04DX002 (ip), vehicle: saline with Tween-80”, the T/C is 91 % of control and 94 % of control.

As for `COc1cccc2c1C(=O)c1c(O)c3c(c(O)c1C2=O)C[C@@](O)(/C(C)=N/NC(=O)c1ccc(-c2ccccc2)cc1)C[C@@H]3OC1CC(N)C(O)C(C)O1` (some centres not stated), the T/C by setting is: (endpoint: mean survival time, dose: 0.06 mg/kg/injection, schedule: Q01DX009 (ip), vehicle: water) 104 % of control; (endpoint: mean survival time, dose: 0.13 mg/kg/injection, schedule: Q01DX009 (ip), vehicle: water) 103 % of control; (endpoint: mean survival time, dose: 0.25 mg/kg/injection, schedule: Q01DX009 (ip), vehicle: water) 114 % of control; (endpoint: mean survival time, dose: 0.5 mg/kg/injection, schedule: Q01DX009 (ip), vehicle: water) 117 % of control; (endpoint: mean survival time, dose: 1.0 mg/kg/injection, schedule: Q01DX009 (ip), vehicle: water) 115 % of control; (endpoint: mean survival time, dose: 2.0 mg/kg/injection, schedule: Q01DX009 (ip), vehicle: water) 122 % of control. Further, the T/C reads like this: (endpoint: mean survival time, dose: 4.0 mg/kg/injection, schedule: Q01DX009 (ip), vehicle: water) 111 % of control; (endpoint: mean survival time, dose: 8.0 mg/kg/injection, schedule: Q01DX009 (ip), vehicle: water) 117 % of control; (endpoint: mean survival time, dose: 16.0 mg/kg/injection, schedule: Q01DX009 (ip), vehicle: water) 88 % of control.
